Source: the CheMixHub viscosity set

Test: xn = mol fraction of the nth substance listed

O=S(=O)([O-])NC1CCCCC1.[Na+] + O
viscosity [mPa·s], 101 kPa
Conditions	x1 = 0.0007834	x1 = 0.001319	x1 = 0.001692	x1 = 0.002246	x1 = 0.002766	x1 = 0.003045	x1 = 0.00349	x1 = 0.004121	x1 = 0.00513	x1 = 0.005949
293.15 K	1.028	1.045	1.058	1.078	1.096	1.107	1.124	1.147	1.184	1.217
298.15 K	0.9131	0.9289	0.9398	0.9564	0.973	0.9813	0.9953	1.015	1.047	1.075
303.15 K	0.8176	0.8313	0.8413	0.8553	0.8697	0.8768	0.889	0.9061	0.9337	0.9581
313.15 K	0.6686	0.6797	0.6875	0.6983	0.7094	0.7149	0.7243	0.7375	0.7588	0.7774
323.15 K	0.5593	0.568	0.5741	0.5829	0.5918	0.5961	0.6036	0.6142	0.6312	0.6458

ClC=C(Cl)Cl + CCOCCO
viscosity [mPa·s], 101.33 kPa
Conditions	x1 = 0.1191	x1 = 0.2226	x1 = 0.3214	x1 = 0.4322	x1 = 0.5234	x1 = 0.6128	x1 = 0.7066	x1 = 0.8105	x1 = 0.9057
303.15 K	1.453	1.286	1.134	0.976	0.865	0.769	0.687	0.614	0.557
313.15 K	1.166	1.052	0.946	0.829	0.747	0.676	0.612	0.555	0.511

CC(O)CO (centres undefined) + CC(C)=O
viscosity [mPa·s], 100 kPa
Conditions	x2 = 0.1	x2 = 0.2	x2 = 0.2998	x2 = 0.3999	x2 = 0.5004	x2 = 0.5999	x2 = 0.6999	x2 = 0.8	x2 = 0.9001
293.15 K	29.94	14.46	7.145	3.875	2.363	1.532	0.934	0.601	0.4671
298.15 K	22.95	11.54	5.918	3.303	2.066	1.356	0.8597	0.5688	0.4463
303.15 K	17.9	9.34	4.965	2.882	1.821	1.201	0.7943	0.5379	0.4209
308.15 K	14.19	7.662	4.208	2.55	1.614	1.103	0.7356	0.5208	0.3953
313.15 K	11.41	6.362	3.602	2.189	1.44	0.9924	0.6822	0.4945	0.377
318.15 K	9.297	5.341	3.109	1.971	1.298	0.8944	0.6317	0.4731	0.3691
323.15 K	7.672	4.529	2.71	1.717	1.175	0.815	0.5813	0.4533	0.3477

CCCCCCCCCCCCCCO + CC(C)[C@@H]1CC[C@@H](C)C[C@H]1O
100 kPa, x1 = 0.333
Conditions	viscosity [mPa·s]
293.15 K	44.69
298.15 K	31.86
303.15 K	23.35
308.15 K	17.54
313.15 K	13.47
318.15 K	10.53
323.15 K	8.38

NC1CCCCC1 + CCCCOCCO
298.15 K, 101 kPa
Conditions	viscosity [mPa·s]
x1 = 0.1169	2.872
x1 = 0.2295	3.006
x1 = 0.338	3.059
x1 = 0.4427	3.069
x1 = 0.5437	3.011
x1 = 0.6412	2.872
x1 = 0.7355	2.697
x1 = 0.8266	2.447
x1 = 0.9147	2.09

NC1CCCCC1 + CC(C)(C)O
298.15 K, 101 kPa
Conditions	viscosity [mPa·s]
x1 = 0.0767	4.039
x1 = 0.1574	3.722
x1 = 0.2426	3.444
x1 = 0.3325	3.203
x1 = 0.4277	2.974
x1 = 0.5285	2.749
x1 = 0.6355	2.519
x1 = 0.7493	2.309
x1 = 0.8706	2.106

NC1CCCCC1 + CCCCO
viscosity [mPa·s], 101 kPa
Conditions	293.15 K	298.15 K	303.15 K
x1 = 0.0515	2.935	2.587	2.27
x1 = 0.0767	–	2.558	–
x1 = 0.1008	2.906	2.563	2.26
x1 = 0.147	2.891	2.549	2.24
x1 = 0.1574	–	2.555	–
x1 = 0.2004	2.886	2.545	2.236
x1 = 0.2426	–	2.564	–
x1 = 0.2992	2.897	2.547	2.233
x1 = 0.3325	–	2.574	–
x1 = 0.4007	2.882	2.533	2.216
x1 = 0.4277	–	2.549	–
x1 = 0.4475	2.868	2.523	–
x1 = 0.4971	2.829	2.48	2.172
x1 = 0.5285	–	2.481	–
x1 = 0.5421	2.784	2.442	2.142
x1 = 0.6078	2.701	2.387	2.095
x1 = 0.6355	–	2.379	–
x1 = 0.7051	2.558	2.259	1.991
x1 = 0.7493	–	2.248	–
x1 = 0.7941	2.419	2.142	1.893
x1 = 0.846	2.344	2.08	1.842
x1 = 0.8706	–	2.062	–
x1 = 0.8879	2.295	2.039	1.81
x1 = 0.9384	2.216	1.973	1.751
